Values after ≈ are worked out from the molar mass of the structure shown. Values joined by “and” are separate entries in the source; they are usually repeats but may differ in a detail not shown here. Equal entries are not always repeated.
How the values were obtained:
Test in all cases: ≥ marks a high value that may be exact or a test limit, other limits are often not marked, values filed in µg/mL are converted to µM
[1] = test system: Enterococcus faecalis ATCC 29212
[2] = test system: Staphylococcus epidermidis ATCC 12228
[3] = test system: Escherichia coli ATCC 25922
[4] = test system: Salmonella enterica subsp. enterica serovar Typhimurium C77-31
Escherichia coli UB1005 = test system: Escherichia coli UB1005
[5] = test system: Staphylococcus aureus ATCC 29213
[6] = test system: Staphylococcus aureus ATCC 2592
[7] = test system: Candida albicans ATCC 2002
Bacillus subtilis = test system: Bacillus subtilis
[8] = test system: Staphylococcus aureus ATCC 25923
[9] = test system: Pseudomonas aeruginosa ATCC 27853
[10] = test system: Staphylococcus aureus ATCC 33591
[11] = test system: Staphylococcus aureus NCTC 8325

Row | MIC [2] | MIC [3] | MIC [4] | MIC (Escherichia coli UB1005) | MIC [5] | SMILES | MIC [8] | MIC [10] | also measured
1 | 16 µM (≈ 34.4 µg/mL) | 8 µM and > 4 µM | 16 µM (≈ 34.4 µg/mL) | 16 µM (≈ 34.4 µg/mL) | 64 µM and > 32 µM | CC[C@H](C)[C@H](NC(=O)[C@H](CCCCN)NC(=O)[C@H](CCCCN)NC(=O)[C@H](CC(C)C)NC(=O)[C@H](CCCN=C(N)N)NC(=O)[C@@H](NC(=O)[C@H](CCCN=C(N)N)NC(=O)[C@@H](NC(=O)[C@H](CCCCN)NC(=O)[C@@H](NC(=O)[C@H](CCCN=C(N)N)NC(=O)[C@H](CC(C)C)NC(=O)[C@H](CCCN=C(N)N)NC(=O)[C@H](CCCN=C(N)N)NC(=O)[C@H](Cc1ccccc1)NC(=O)[C@@H](N)CCCN=C(N)N)[C@@H](C)CC)[C@@H](C)O)[C@@H](C)CC)C(N)=O [RFRRLRIKTRIRLKKI] | – | – | MIC [1]: 16 µM (≈ 34.4 µg/mL)
2 | 4 µM (≈ 7.37 µg/mL) | 4 µM (≈ 7.37 µg/mL) | 4 µM (≈ 7.37 µg/mL) | 2 µM (≈ 3.68 µg/mL) | 4 µM (≈ 7.37 µg/mL) | CC(C)C[C@H](NC(=O)[C@H](CCCN=C(N)N)NC(=O)[C@H](Cc1c[nH]c2ccccc12)NC(=O)[C@H](CCCN=C(N)N)NC(=O)[C@@H](NC(=O)[C@H](Cc1c[nH]c2ccccc12)NC(=O)[C@H](Cc1c[nH]c2ccccc12)NC(=O)[C@H](CCCN=C(N)N)NC(=O)[C@H](CC(C)C)NC(=O)[C@H](Cc1c[nH]c2ccccc12)NC(=O)[C@@H](N)CCCN=C(N)N)[C@@H](C)O)C(=O)N[C@@H](CCCCN)C(N)=O [RWLRWWTRWRLK] | 2 µM (≈ 3.68 µg/mL) | – | –
3 | – | 16 µM (≈ 37.4 µg/mL) | – | – | – | CC[C@H](C)[C@H](NC(=O)[C@H](CCC(N)=O)NC(=O)[C@H](CC(C)C)NC(=O)[C@H](CCC(N)=O)NC(=O)[C@@H](NC(=O)[C@H](CCCN=C(N)N)NC(=O)[C@H](Cc1ccccc1)NC(=O)[C@H](Cc1c[nH]c2ccccc12)NC(=O)[C@@H](N)CCCN=C(N)N)[C@@H](C)CC)C(=O)N[C@@H](CCCN=C(N)N)C(=O)N[C@@H](CCCN=C(N)N)C(=O)N[C@@H](Cc1c[nH]c2ccccc12)C(=O)N[C@@H](CCCN=C(N)N)C(=O)N[C@@H](CC(N)=O)C(=O)N[C@@H](CCCN=C(N)N)C(=O)N[C@@H](CCCN=C(N)N)C(N)=O [RWFRIQLQIRRWRNRR] | – | 16 µM (≈ 37.4 µg/mL) | –

The remaining lines, values behind:

Row | SMILES | MIC [2] | MIC [3] | MIC [4] | MIC (Escherichia coli UB1005) | MIC [5] | MIC [8] | MIC [10] | also measured
4 | CC[C@H](C)[C@H](NC(=O)CNC(=O)[C@H](CO)NC(=O)[C@H](CCCN=C(N)N)NC(=O)[C@@H](N)Cc1ccccc1)C(=O)N[C@@H](CC(C)C)C(=O)N[C@@H](CCCCN)C(=O)N[C@@H](CC(C)C)C(=O)N[C@@H](C)C(=O)N[C@@H](CO)C(=O)N[C@@H](CCCCN)C(=O)N[C@H](C(=O)N1CCC[C@H]1C(=O)N[C@@H](CO)C(=O)N[C@H](C(=O)N[C@@H](CC(C)C)C(=O)N[C@H]1CSSC[C@@H](C(=O)O)NC(=O)[C@H](CC(N)=O)NC(=O)[C@H](CCCCN)NC(=O)[C@H](CC(C)C)NC(=O)[C@H](C(C)C)NC(=O)[C@H](C)NC1=O)C(C)C)[C@@H](C)CC [FRSGILKLASKIPSVLCAVLKNC] | – | 20.3 µM (≈ 50 µg/mL) | – | – | – | – | – | MIC [6]: 5.08 µM (≈ 12.5 µg/mL); MIC [7]: 10.2 µM (≈ 25 µg/mL); MIC (Bacillus subtilis): 20.3 µM (≈ 50 µg/mL)
5 | NC(=O)[C@H](CCCN=C(N)N)NC(=O)[C@H](CCCN=C(N)N)NC(=O)[C@@H]1CCCN1C(=O)[C@H](CCCN=C(N)N)NC(=O)[C@H](CCCN=C(N)N)NC(=O)[C@H](CCCN=C(N)N)NC(=O)[C@H](Cc1c[nH]c2ccccc12)NC(=O)[C@H](CCCN=C(N)N)NC(=O)[C@H](CCCN=C(N)N)NC(=O)[C@H](CCCN=C(N)N)NC(=O)[C@H](CCCN=C(N)N)NC(=O)[C@H](CCCN=C(N)N)NC(=O)[C@H](Cc1c[nH]c2ccccc12)NC(=O)[C@H](CCCN=C(N)N)NC(=O)[C@H](CCCN=C(N)N)NC(=O)[C@H](Cc1ccc(O)cc1)NC(=O)[C@H](CCCN=C(N)N)NC(=O)[C@H](CCCN=C(N)N)NC(=O)[C@H](CCCN=C(N)N)NC(=O)[C@@H](N)Cc1c[nH]c2ccccc12 [WRRRYRRWRRRRRWRRRPRR] | – | 3.13 µM (≈ 9.95 µg/mL) | – | – | – | 1.56 µM (≈ 4.96 µg/mL) | 1.56 µM (≈ 4.96 µg/mL) | MIC [9]: 3.13 µM (≈ 9.95 µg/mL)
6 | CC[C@H](C)[C@H](NC(=O)[C@H](C)NC(=O)[C@@H]1CCCN1C(=O)[C@H](CC(C)C)NC(=O)[C@@H](N)Cc1ccccc1)C(=O)N[C@H](C(=O)NCC(=O)N[C@@H](C)C(=O)N[C@@H](C)C(=O)N[C@@H](C)C(=O)N[C@@H](CCCCN)C(=O)N[C@@H](Cc1ccccc1)C(=O)N[C@@H](CC(C)C)C(=O)N1CCC[C@H]1C(=O)N[C@@H](CCCCN)C(=O)N[C@H](C(=O)N[C@@H](Cc1ccccc1)C(=O)N[C@H]1CSSC[C@@H](C(=O)O)NC(=O)[C@H](CCCCN)NC(=O)[C@H](CCCCN)NC(=O)[C@H](CO)NC(=O)[C@H]([C@@H](C)CC)NC(=O)[C@H](C(C)C)NC1=O)[C@@H](C)CC)C(C)C [FLPAIVGAAAKFLPKIFCVISKKC] | – | 15 µM (≈ 38.4 µg/mL) | – | – | – | – | – | MIC [11]: 3 µM (≈ 7.69 µg/mL)
